Results on 21 compounds are retold here after article PMC2586337 (Biochemistry, 2008).

Like-named read-outs stand apart in the source and are kept apart here. Some results are limits rather than exact numbers.

The target in assay [1] is T1, primase (UL5/UL8/UL52) (Human herpesvirus 1, UniProt P10236). Put plainly: Polymerization of nucleoside triphosphates onto a RNA primer:DNA template. It is filed as biochemical, herpes simplex virus I. Conditions: for VMax: primer:template DNAT, DNAC or DNAG; for Km: primer:template with next correct NTP: DNAT (ATP), DNAC (GTP), DNAG (CTP).
Assay [2] addresses T1, primase (UL5/UL8/UL52). Put plainly: Incorporation of nucleotides as the 5′-terminal nucleotide of the primer. It is filed as biochemical, herpes simplex virus I.
Assay [3] addresses T1, primase (UL5/UL8/UL52). The assay can be described thus: Incorporation of nucleotides as the second nucleotide of the primer. It is filed as biochemical, herpes simplex virus I.
Assay [4] addresses T1, primase (UL5/UL8/UL52). Put plainly: Primer synthesis on d. Conditions: for incorporation by primase opposite template dG (new products of altered mobility): template d(GTCT)15, ATP, 800 μM analogue; for incorporation by primase opposite template dG (new products of altered mobility) / primers elongated after incorporation of the nucleotide: GTP; for chain termination after incorporation: template d(GTCT)15, ATP and GTP; for primers elongated after incorporation of the nucleotide: 800 μM ATP. In kind it is biochemical, herpes simplex virus I.

Assay [5] concerns the target T1, primase (UL5/UL8/UL52). The assay can be described thus: Inhibition of NTP polymerization onto primer:templates. In kind it is biochemical. Conditions: for type of inhibition with respect to GTP incorporation: data not shown.
Assay [6] deals with T1, primase (UL5/UL8/UL52). In kind it is biochemical, herpes simplex virus I.
The mark [7] stands for this setting: inhibition of ATP polymerization, ATP (100 μM), DNAT.
Where [8] appears, read: inhibition of GTP polymerization, 800 μM GTP, DNAC.
The mark [9] stands for this setting: inhibition of GTP polymerization, GTP (100 μM), DNAC.
Setting [10] is: IC50, inhibition of GTP polymerization, 800 μM GTP, DNAC.

T1 sequence (P10189 whole entry): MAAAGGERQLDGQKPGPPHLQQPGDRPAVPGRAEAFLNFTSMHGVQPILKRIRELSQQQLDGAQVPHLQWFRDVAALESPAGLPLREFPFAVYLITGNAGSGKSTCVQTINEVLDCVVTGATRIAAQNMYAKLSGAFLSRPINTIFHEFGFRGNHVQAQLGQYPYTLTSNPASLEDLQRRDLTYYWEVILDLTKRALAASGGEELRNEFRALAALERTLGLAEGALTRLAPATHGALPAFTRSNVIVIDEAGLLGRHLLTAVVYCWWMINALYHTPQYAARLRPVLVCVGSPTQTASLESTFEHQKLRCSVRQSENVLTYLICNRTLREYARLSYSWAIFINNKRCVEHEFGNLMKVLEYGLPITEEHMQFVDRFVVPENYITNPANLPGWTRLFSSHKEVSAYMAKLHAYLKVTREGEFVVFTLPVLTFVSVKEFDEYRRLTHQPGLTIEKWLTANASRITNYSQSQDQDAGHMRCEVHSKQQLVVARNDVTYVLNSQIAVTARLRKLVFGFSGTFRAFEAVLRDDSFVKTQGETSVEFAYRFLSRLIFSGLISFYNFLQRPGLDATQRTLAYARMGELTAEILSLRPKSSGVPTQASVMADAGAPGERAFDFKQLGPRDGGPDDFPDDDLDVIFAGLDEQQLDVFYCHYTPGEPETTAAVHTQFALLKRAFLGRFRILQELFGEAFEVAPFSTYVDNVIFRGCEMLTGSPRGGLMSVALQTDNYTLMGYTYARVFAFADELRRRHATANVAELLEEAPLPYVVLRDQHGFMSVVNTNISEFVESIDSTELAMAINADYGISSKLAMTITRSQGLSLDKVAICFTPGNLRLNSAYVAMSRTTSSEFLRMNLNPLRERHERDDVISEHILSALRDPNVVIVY
T1 sequence (P10192 whole entry, further chain): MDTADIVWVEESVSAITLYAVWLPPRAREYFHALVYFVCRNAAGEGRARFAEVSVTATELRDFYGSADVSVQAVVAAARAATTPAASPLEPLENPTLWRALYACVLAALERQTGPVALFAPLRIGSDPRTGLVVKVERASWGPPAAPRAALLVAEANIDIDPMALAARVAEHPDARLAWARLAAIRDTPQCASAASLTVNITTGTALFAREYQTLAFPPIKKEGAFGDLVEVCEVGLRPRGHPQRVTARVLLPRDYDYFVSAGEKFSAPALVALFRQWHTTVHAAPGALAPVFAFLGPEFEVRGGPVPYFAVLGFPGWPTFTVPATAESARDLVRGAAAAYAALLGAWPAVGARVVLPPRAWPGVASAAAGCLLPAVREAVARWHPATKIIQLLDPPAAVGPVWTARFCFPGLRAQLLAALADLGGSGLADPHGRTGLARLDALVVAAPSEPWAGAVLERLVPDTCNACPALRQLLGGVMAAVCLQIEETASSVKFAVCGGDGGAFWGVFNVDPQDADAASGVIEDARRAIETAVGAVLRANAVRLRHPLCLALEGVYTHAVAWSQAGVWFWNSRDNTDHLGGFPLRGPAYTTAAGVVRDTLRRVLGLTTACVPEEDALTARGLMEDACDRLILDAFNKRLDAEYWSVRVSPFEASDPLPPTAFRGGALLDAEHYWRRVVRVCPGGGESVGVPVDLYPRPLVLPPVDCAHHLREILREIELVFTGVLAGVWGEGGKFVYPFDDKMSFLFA
T1 sequence (P10236 whole entry): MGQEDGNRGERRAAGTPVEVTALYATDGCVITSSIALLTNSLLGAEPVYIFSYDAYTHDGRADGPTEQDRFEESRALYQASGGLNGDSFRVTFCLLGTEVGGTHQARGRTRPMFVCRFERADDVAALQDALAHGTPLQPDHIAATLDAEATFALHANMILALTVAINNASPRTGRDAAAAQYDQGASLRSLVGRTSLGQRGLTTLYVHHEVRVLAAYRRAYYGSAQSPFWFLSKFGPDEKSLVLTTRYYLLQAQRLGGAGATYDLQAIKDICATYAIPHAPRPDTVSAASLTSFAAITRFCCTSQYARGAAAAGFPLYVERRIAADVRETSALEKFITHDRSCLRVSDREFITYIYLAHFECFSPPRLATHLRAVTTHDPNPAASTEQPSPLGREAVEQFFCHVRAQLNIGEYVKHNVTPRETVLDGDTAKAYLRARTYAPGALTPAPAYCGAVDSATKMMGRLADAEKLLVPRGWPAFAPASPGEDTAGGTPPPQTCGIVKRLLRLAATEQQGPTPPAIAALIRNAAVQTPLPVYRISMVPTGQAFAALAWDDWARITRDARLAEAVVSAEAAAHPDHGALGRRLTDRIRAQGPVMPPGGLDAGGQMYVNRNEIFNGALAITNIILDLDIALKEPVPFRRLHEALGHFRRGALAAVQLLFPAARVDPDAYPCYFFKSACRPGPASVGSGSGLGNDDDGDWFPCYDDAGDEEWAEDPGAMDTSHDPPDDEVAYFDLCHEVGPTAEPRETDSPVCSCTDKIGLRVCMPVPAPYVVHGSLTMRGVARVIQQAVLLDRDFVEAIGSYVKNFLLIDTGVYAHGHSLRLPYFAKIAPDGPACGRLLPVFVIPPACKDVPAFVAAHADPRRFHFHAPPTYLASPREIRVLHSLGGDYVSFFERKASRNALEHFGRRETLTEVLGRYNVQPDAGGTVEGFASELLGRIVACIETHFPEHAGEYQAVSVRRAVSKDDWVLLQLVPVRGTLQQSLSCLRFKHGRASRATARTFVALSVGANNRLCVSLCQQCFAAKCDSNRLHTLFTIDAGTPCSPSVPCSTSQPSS

With `Nc1ncnc2c1ncn2[C@H]1C[C@H](O)[C@@H](COP(=O)(O)OP(=O)(O)OP(=O)(O)O)O1` [2′-dATP], the results for the VMax on primase (UL5/UL8/UL52) [1], at primase (UL5/UL8/UL52) [2] and at primase (UL5/UL8/UL52) [3] were 0.024 ± 0.06 pmol/h, 20 ± 1.1 pmol/min and >10 pmol/min, respectively. Also, on primase (UL5/UL8/UL52) [1], the Km amounted to 770 ± 370 µM.

Turning to `Nc1ccn([C@H]2C[C@H](O)[C@@H](COP(=O)(O)OP(=O)(O)OP(=O)(O)O)O2)c(=O)n1` [2′-dCTP], at primase (UL5/UL8/UL52) [1], the VMax was determined as 0.16 ± 0.036 pmol/h and the Km stood at 640 ± 360 µM. Moreover, the “incorporation by primase opposite template dG (new products of altered mobility)” value on primase (UL5/UL8/UL52) [4] is “readily incorporates”.

`Nc1nc2c(ncn2[C@H]2C[C@H](O)[C@@H](COP(=O)(O)OP(=O)(O)OP(=O)(O)O)O2)c(=O)[nH]1` [2′-dGTP]: at primase (UL5/UL8/UL52) [1], the VMax is 0.18 ± 0.02 pmol/h and the Km was 130 ± 80 µM. Also, the VMax on primase (UL5/UL8/UL52) [3] is 5.3 ± 0.8 pmol/min.

`Nc1ncnc2c1ncn2[C@@H]1O[C@H](COP(=O)(O)OP(=O)(O)OP(=O)(O)O)C[C@H]1O` [3′-dATP, cordycepin triphosphate] displayed an IC50 on primase (UL5/UL8/UL52) [5] (inhibition of ATP polymerization, 800 μM ATP, DNAT) of 1100 ± 170 µM.

On to `Nc1nc2c(ncn2COCCOP(=O)(O)OP(=O)(O)OP(=O)(O)O)c(=O)[nH]1` [ACVTP, acyclovir triphosphate], for which, at primase (UL5/UL8/UL52) [5], 3200 ± 570 µM corresponded to half-maximal inhibition (IC50).

`Nc1ncnc2c1ncn2[C@@H]1O[C@H](COP(=O)(O)OP(=O)(O)O)[C@@H](O)[C@H]1O` [ADP]: the IC50 at primase (UL5/UL8/UL52) [5] (setting [7]) is > 10000 µM.

On to `Nc1ncnc2c1ncn2[C@@H]1O[C@H](COP(=O)(O)O)[C@@H](O)[C@H]1O` [AMP], for which the IC50 against primase (UL5/UL8/UL52) [5] (setting [7]) is > 10000 µM.

For the compound `Nc1ncnc2c1ncn2[C@@H]1O[C@H](COP(=O)(O)OP(=O)(O)OP(=O)(O)O)[C@@H](O)[C@H]1O` [ATP], the VMax at primase (UL5/UL8/UL52) [1] was found to be 0.23 ± 0.09 pmol/h; at primase (UL5/UL8/UL52) [2], 14 ± 1.7 pmol/min; on primase (UL5/UL8/UL52) [3], 5.1 ± 1.8 pmol/min. For the same compound, the Km at primase (UL5/UL8/UL52) [1] is 1700 ± 960 µM.

As for `Nc1ncnc2c1ncn2[C@@H]1O[C@H](COP(=O)(O)OP(=O)(O)OP(=O)(O)O)[C@@H](O)[C@@H]1O` [AraATP, arabionfuranosyladenine triphosphate], the VMax on primase (UL5/UL8/UL52) [1] turned out to be 0.026 ± 0.004 pmol/h; on primase (UL5/UL8/UL52) [2], 0.04 ± 0.005 pmol/min; at primase (UL5/UL8/UL52) [3] it was 1.0 ± 0.16 pmol/min. For the same compound, the Km at primase (UL5/UL8/UL52) [1] came out at 190 ± 110 µM.

`Nc1ccn([C@@H]2O[C@H](COP(=O)(O)OP(=O)(O)OP(=O)(O)O)[C@@H](O)[C@@H]2O)c(=O)n1` [AraCTP, arabinofuranosylcytosine triphosphate]: on primase (UL5/UL8/UL52) [1], the VMax came out at 0.30 ± 0.05 pmol/h and the Km turned out to be 360 ± 190 µM. For the same compound, on primase (UL5/UL8/UL52) [4], the “chain termination after incorporation” value is on record as “very strong chain termination” and the “incorporation by primase opposite template dG (new products of altered mobility)” value was “polymerized”.

As for `Nc1nc2c(ncn2[C@@H]2O[C@H](COP(=O)(O)OP(=O)(O)OP(=O)(O)O)[C@@H](O)[C@@H]2O)c(=O)[nH]1` [AraGTP, arabinofuranosylguanine triphosphate], the VMax at primase (UL5/UL8/UL52) [1] stood at 0.044 ± 0.006 pmol/h; at primase (UL5/UL8/UL52) [3] it was 4.1 ± 0.3 pmol/min. Besides, on primase (UL5/UL8/UL52) [1], the Km worked out at 300 ± 140 µM.

On to `Nc1ccn([C@@H]2O[C@H](COP(=O)(O)OP(=O)(O)OP(=O)(O)O)[C@@H](O)[C@H]2O)c(=O)n1` [CTP], for which, at primase (UL5/UL8/UL52) [1], the VMax was determined as 1.2 ± 0.16 pmol/h and the Km turned out to be 1100 ± 280 µM. For the same compound, the “primers elongated after incorporation of the nucleotide” value at primase (UL5/UL8/UL52) [4] (template d(GTCT)15) amounted to 75%. Also, the “incorporation by primase opposite template dG (new products of altered mobility)” value at primase (UL5/UL8/UL52) [4] was “readily incorporates”.

On primase (UL5/UL8/UL52) [5] (setting [8]), `Nc1nc(O)c2ncn(COC(CO)COP(=O)(O)OP(=O)(O)OP(=O)(O)O)c2n1` (centres unmarked) [GCVTP, ganciclovir triphosphate] showed an IC50 of 3400 ± 880 µM.

For the compound `Nc1nc2c(ncn2[C@@H]2O[C@H](COP(=O)(O)OP(=O)(O)O)[C@@H](O)[C@H]2O)c(=O)[nH]1` [GDP], the “type of inhibition with respect to GTP incorporation” value on primase (UL5/UL8/UL52) [5] is on record as “competitive”. For the same compound, half-maximal inhibition against primase (UL5/UL8/UL52) [5] (setting [9]) (IC50) required 4400 ± 650 µM.

In the case of `Nc1nc2c(ncn2[C@@H]2O[C@H](COP(=O)(O)O)[C@@H](O)[C@H]2O)c(=O)[nH]1` [GMP], the IC50 on primase (UL5/UL8/UL52) [5] (setting [9]) worked out at 3800 ± 540 µM.

Turning to `Nc1nc2c(ncn2[C@@H]2O[C@H](COP(=O)(O)OP(=O)(O)OP(=O)(O)O)[C@@H](O)[C@H]2O)c(=O)[nH]1` [GTP], the VMax on primase (UL5/UL8/UL52) [1] is 0.060 ± 0.012 pmol/h; on primase (UL5/UL8/UL52) [2], 1.1 ± 0.27 pmol/min; on primase (UL5/UL8/UL52) [3] it was 9.5 ± 1.3 pmol/min. For the same compound, the Km on primase (UL5/UL8/UL52) [1] was found to be 230 ± 170 µM.

In the case of `Nc1ccn(C2SC(COP(=O)(O)OP(=O)(O)OP(=O)(O)O)C(O)C2O)c(=O)n1` (centres unmarked) [SaraCTP, 4′-thio-arabinofuranosylcytosine triphosphate], on primase (UL5/UL8/UL52) [4], the “chain termination after incorporation” value is listed as “very strong chain termination” and the “incorporation by primase opposite template dG (new products of altered mobility)” value is given as “polymerized”.

Consider `Nc1ccn([C@@H]2O[C@H](COP(=O)(O)OP(=O)(O)OP(=O)(O)O)[C@@H](O)C2(F)F)c(=O)n1` [dFdCTP, 2′,2′-Difluoro-2′-deoxycytidine triphosphate], for which the “primers elongated after incorporation of the nucleotide” value on primase (UL5/UL8/UL52) [4] (template d(GTCT)15) is given as 11%. Moreover, the inhibition of primase result against primase (UL5/UL8/UL52) [4] (800 μM, template d(GTCT)15) is reported as “relatively strong inhibition”. Further, on primase (UL5/UL8/UL52) [4], the “chain termination after incorporation” value is listed as “strong chain termination” and the “incorporation by primase opposite template dG (new products of altered mobility)” value is recorded as “polymerized”.

Consider `Nc1ncnc2c1ncn2[C@H]1CC[C@@H](COP(=O)(O)OP(=O)(O)OP(=O)(O)O)O1` [ddATP], for which the IC50 on primase (UL5/UL8/UL52) [5] (IC50, inhibition of ATP polymerization, 800 μM ATP, DNAT) was found to be 1700 ± 110 µM; on primase (UL5/UL8/UL52) [5] (setting [10]), 2400 ± 900 µM.

Consider `Nc1ccn([C@H]2CC[C@@H](COP(=O)(O)OP(=O)(O)OP(=O)(O)O)O2)c(=O)n1` [ddCTP], for which, on primase (UL5/UL8/UL52) [4], the “incorporation by primase opposite template dG (new products of altered mobility)” value is reported as “does not readily incorporate”. The inhibition of primase on primase (UL5/UL8/UL52) [4] (template d(GTCT)15, increased ddCTP concentration, data not shown) is reported as > 90%. On primase (UL5/UL8/UL52) [5] (setting [10]), this compound returned an IC50 of 800 ± 120 µM.

As for `Nc1nc2c(ncn2[C@H]2CC[C@@H](COP(=O)(O)OP(=O)(O)OP(=O)(O)O)O2)c(=O)[nH]1` [ddGTP], the “type of inhibition with respect to GTP incorporation” value at primase (UL5/UL8/UL52) [5] is reported as “competitive”. Moreover, the IC50 at primase (UL5/UL8/UL52) [5] (setting [8]) was 1100 ± 180 µM. In addition, the “inhibition of primase activity” value at primase (UL5/UL8/UL52) [6] (template C20GCCCTA15, increasing ddGTP up to 2 mM) is given as “up to 90%”. For the same compound, the “incorporation by primase as third and later nucleotide (new products)” value on primase (UL5/UL8/UL52) [6] (template C20GCCCTA15 for GTP analogues, ATP, [α-32P]GTP, partly data not shown) is recorded as “no new products”.
